{"source": "patent US6841563B1", "about": "“Aryloxy propanolamines for improving livestock production” (Eli Lilly and Company, priority 1999, dated 2005)", "key": {"[1]": {"experiment": "28-day cattle study, orally administered Compound 6: growth and carcass measurements", "type": "in vivo", "details": "for Feed efficiency / Yield grade (YG) / area of the longissimus dorsi muscle at the twelfth rib: oral, 28 days", "experimental": "Thirty-two Angus crossbred steers were blocked by weight into a heavy (4 heaviest blocks, avg. initial BW=1226 lb. (557 kg)) and a light (4 lightest blocks, avg. initial BW=1164 lb. (528 kg)) replication. The steers within each block were assigned to one of four treatments (8 steers/treatment) to investigate the effects of orally administered Compound 6 on the growth and carcass measurements when fed to cattle for 28 days immediately prior to slaughter. The treatments included a CONTROL (0.0 mg Compound 6 per kg BW), and three levels of Compound 6 (LOW, 0.125 mg Compound 6 per kg BW; MED, 0.250 mg Compound 6 per kg BW; HIGH, 0.500 mg Compound 6 per kg BW). Compound 6 was mixed with ground corn and fed to the steers as a top dress on a portion of their daily feed. The CONTROL steers received a similar amount of a ground corn top dress. The steers were required to consume the initial feed and top dress before the remaining amount of feed was issued. The basal ration was a commercially available feed (19.3% CP, DM basis). Both feed and water were available ad libitum. The steers were individually housed in 12 ft×48 ft pens equipped with an individual feed bunk and automatic waterer. On day 28 the steers were weighed and a blood sample collected prior to being shipped for slaughter and subsequent carcass evaluation."}, "[2]": {"experiment": "Weight gain, feed efficiency, breast and leg quarter weights, last 28 days of growing period in broiler chickens", "type": "in vivo", "details": "for Bone-in, Skin-on Breast Weight / Bone-in, Skin-on leg Quarter Weight / Dressing Percentage / Fat Pad Weight / Final Weight Day 49 / Hot Carcass Weight / Interim Weight Day 35 / Pen Feed Intake / Total Weight Gain (d 21-49) / Viscera Weight / Weight Gain Period 1 (d 21-35) / Weight Gain Period 2 (d 35-49) / Feed Efficiency F/G: day 21-49; for Feed Efficiency F/G: pen feed intake/total pen weight; for improvement of feed efficiency (feed/gain) compared with control: 28-day treatment period", "source_text": "Approximately 2500 Peterson-Hubbard, day-old, male chicks were used in a randomized, complete-block design with 3 treatments (Control and Compound 6 at 3 and 15 PPM (mg/kg feed)). The testing facility contained two wings, each containing 30 pens. The pens in each wing were divided into 6 blocks of 5 pens. Treatments were randomly allotted within each block. Each treatment consisted of 12 pens with 10 birds per pen.\nDay-of-age birds were obtained from Pine Manor Hatchery in Goshen, Ind. Approximately 40 birds per pen were set at random upon receipt. On day 16 of the growout period, all birds were weighed and the 15 birds closest to the block mean were selected. These birds were allowed to acclimate until day 21 of age. On this day, all remaining birds were weighed again, and the 10 birds/pen closest to the block mean were chosen for the treatment phase. Birds were provided ad libitum access to feed and water throughout the trial. All birds were fed a 23% crude protein corn-soy ration from day 1 until day 18 of age. The feed was changed to a 20% crude protein ration for day 18 to day 49. The treatment feed was mixed using the 20% crude protein basal ration. Treatments were administered in the feed from day 21 through day 49. An interim weight was taken on day 35. Feed consumption was calculated over the entire 28-day treatment period. Birds were weighed at trial completion (day 49), and were transported to Purdue University meat laboratory for slaughter and carcass measurements on day, 50. Weights of the hot carcass; fat pad; viscera; bone-in, skin-on breast; and bone-in, skin-on, leg quarter were taken on all animals."}}, "note": "Marks after values point to notes of the source that are not given here."}
{"smiles": "CC(C)(Cc1ccc(Oc2ncccc2C(N)=O)cc1)NC[C@H](O)COc1cccc2[nH]ccc12", "note": "[Compound 6, (S)-2-[4-[2-[2-Hydroxy-3-(1H-indol-4-yloxy)propylamino]-2-methylpropyl]-phenoxy]-3-pyridinecarboxamide]", "values": [{"measurement": "Conformation score", "setting": "[1]; Compound 6 treatments vs CONTROL, P<0.005", "result": "higher"}, {"measurement": "Fat thickness at the twelfth rib", "setting": "[1]; Compound 6 treatments vs CONTROL, P>0.78", "result": "not different"}, {"measurement": "Dressing percent", "setting": "[1]; Compound 6 treatments vs CONTROL, F-test P=0.1138, Treatment P<0.05", "result": "to be higher"}, {"measurement": "Feed efficiency", "setting": "[1]; HIGH, 0.500 mg per kg BW", "result": "4.18 pound of feed per pound of gain"}, {"measurement": "Yield grade (YG)", "setting": "[1]; HIGH, 0.500 mg per kg BW", "result": 2.46}, {"measurement": "area of the longissimus dorsi muscle at the twelfth rib", "setting": "[1]; HIGH, 0.500 mg per kg BW", "result": 14.5, "unit": "in^2"}, {"measurement": "Feed efficiency", "setting": "[1]; LOW, 0.125 mg per kg BW", "result": "4.36 pound of feed per pound of gain"}, {"measurement": "area of the longissimus dorsi muscle at the twelfth rib", "setting": "[1]; LOW, 0.125 mg per kg BW", "result": 13.5, "unit": "in^2"}, {"measurement": "Yield grade (YG)", "setting": "[1]; LOW, 0.125 mg per kg BW, lower value = more saleable meat", "result": 2.76}, {"measurement": "Feed efficiency", "setting": "[1]; MED, 0.250 mg per kg BW", "result": "4.19 pound of feed per pound of gain"}, {"measurement": "Yield grade (YG)", "setting": "[1]; MED, 0.250 mg per kg BW", "result": 2.51}, {"measurement": "area of the longissimus dorsi muscle at the twelfth rib", "setting": "[1]; MED, 0.250 mg per kg BW", "result": 14.3, "unit": "in^2"}, {"measurement": "carcass composition (% fat, % protein, % moisture, % bone)", "setting": "[1]; among the treatments, P>0.12, calculated by Hankins and Howe equations", "result": "did not differ statistically"}, {"measurement": "USDA quality grade and marbling scores", "setting": "[1]; among the treatments, P>0.90", "result": "Neither the USDA quality grade nor marbling scores differed"}, {"measurement": "Daily dry matter intake", "setting": "[1]; between the treatments (CONTROL, LOW, MED, HIGH), P>0.47", "result": "did not differ"}, {"measurement": "Bone-in, Skin-on Breast Weight", "setting": "[2]; 3 PPM in feed", "result": "618.03* g"}, {"measurement": "Bone-in, Skin-on leg Quarter Weight", "setting": "[2]; 3 PPM in feed", "result": "665.64** g"}, {"measurement": "Dressing Percentage", "setting": "[2]; 3 PPM in feed", "result": "71.14**"}, {"measurement": "Fat Pad Weight", "setting": "[2]; 3 PPM in feed", "result": 51.67, "unit": "g"}, {"measurement": "Final Weight Day 49", "setting": "[2]; 3 PPM in feed", "result": "2.78** kg"}, {"measurement": "Hot Carcass Weight", "setting": "[2]; 3 PPM in feed", "result": "1995.58** g"}, {"measurement": "Interim Weight Day 35", "setting": "[2]; 3 PPM in feed", "result": "1.66* kg"}, {"measurement": "Pen Feed Intake", "setting": "[2]; 3 PPM in feed", "result": 41.22, "unit": "kg"}, {"measurement": "Total Weight Gain (d 21-49)", "setting": "[2]; 3 PPM in feed", "result": "2.09** kg"}, {"measurement": "Viscera Weight", "setting": "[2]; 3 PPM in feed", "result": 265.82, "unit": "g"}, {"measurement": "Weight Gain Period 1 (d 21-35)", "setting": "[2]; 3 PPM in feed", "result": "0.96* kg"}, {"measurement": "Weight Gain Period 2 (d 35-49)", "setting": "[2]; 3 PPM in feed", "result": "1.12** kg"}, {"measurement": "Feed Efficiency F/G", "setting": "[2]; 3 PPM in feed", "result": 2.04}, {"measurement": "improvement of feed efficiency (feed/gain) compared with control", "setting": "[2]; 3 PPM, P=0.1426", "result": 6.85, "unit": "%"}, {"measurement": "increase in bone-in, skin-on, leg quarters weight", "setting": "[2]; 3 PPM, P=0.0001", "result": 10.63, "unit": "%"}, {"measurement": "increase in hot carcass weights over control", "setting": "[2]; 3 PPM, P=0.0001", "result": 6.50, "unit": "%"}, {"measurement": "decrease in viscera weights compared to control", "setting": "[2]; 3 PPM, P=0.4004", "result": 1.54, "unit": "%"}, {"measurement": "increase in weight gain over control", "setting": "[2]; 3 PPM, entire 28-day treatment period, P=0.0051", "result": 5.03, "unit": "%"}, {"measurement": "increase in weight gain over control", "setting": "[2]; 3 PPM, first 14 days of the treatment period, P=0.0395", "result": 3.22, "unit": "%"}, {"measurement": "increase in weight gain over control", "setting": "[2]; 3 PPM, last 14 days of treatment, P=0.0064", "result": 6.67, "unit": "%"}, {"measurement": "Bone-in, Skin-on Breast Weight", "setting": "[2]; 15 PPM in feed", "result": 600.55, "unit": "g"}, {"measurement": "Bone-in, Skin-on leg Quarter Weight", "setting": "[2]; 15 PPM in feed", "result": "635.36** g"}, {"measurement": "Dressing Percentage", "setting": "[2]; 15 PPM in feed", "result": "71.16**"}, {"measurement": "Fat Pad Weight", "setting": "[2]; 15 PPM in feed", "result": 49.16, "unit": "g"}, {"measurement": "Final Weight Day 49", "setting": "[2]; 15 PPM in feed", "result": 2.70, "unit": "kg"}, {"measurement": "Hot Carcass Weight", "setting": "[2]; 15 PPM in feed", "result": "1928.17* g"}, {"measurement": "Interim Weight Day 35", "setting": "[2]; 15 PPM in feed", "result": 1.63, "unit": "kg"}, {"measurement": "Pen Feed Intake", "setting": "[2]; 15 PPM in feed", "result": 39.09, "unit": "kg"}, {"measurement": "Total Weight Gain (d 21-49)", "setting": "[2]; 15 PPM in feed", "result": 2.01, "unit": "kg"}, {"measurement": "Viscera Weight", "setting": "[2]; 15 PPM in feed", "result": 261.08, "unit": "g"}, {"measurement": "Weight Gain Period 1 (d 21-35)", "setting": "[2]; 15 PPM in feed", "result": 0.94, "unit": "kg"}, {"measurement": "Weight Gain Period 2 (d 35-49)", "setting": "[2]; 15 PPM in feed", "result": 1.07, "unit": "kg"}, {"measurement": "Feed Efficiency F/G", "setting": "[2]; 15 PPM in feed", "result": 2.09}, {"measurement": "improvement of feed efficiency (feed/gain) compared with control", "setting": "[2]; 15 PPM, P=0.3594", "result": 4.57, "unit": "%"}, {"measurement": "increase in bone-in, skin-on, leg quarters weight", "setting": "[2]; 15 PPM, P=0.0003", "result": 5.60, "unit": "%"}, {"measurement": "increase in hot carcass weights over control", "setting": "[2]; 15 PPM, P=0.0434", "result": 2.90, "unit": "%"}, {"measurement": "decrease in viscera weights compared to control", "setting": "[2]; 15 PPM, P=0.0764", "result": 3.29, "unit": "%"}, {"measurement": "increase in weight gain over control", "setting": "[2]; 15 PPM, entire 28-day treatment period, P=0.5419", "result": 1.01, "unit": "%"}, {"measurement": "increase in weight gain over control", "setting": "[2]; 15 PPM, first 14 days of the treatment period, P=0.7600", "result": 1.08, "unit": "%"}, {"measurement": "increase in weight gain over control", "setting": "[2]; 15 PPM, last 14 days of treatment, P=0.5028", "result": 1.90, "unit": "%"}, {"measurement": "effect on fat pad weight (fat accretion)", "setting": "[2]; at either dose (3 PPM, 15 PPM)", "result": "no significant effect"}, {"measurement": "increase in breast muscle weight (bone and skin attached)", "setting": "[2]; high dose (15 PPM), P=0.5351", "result": 1.06, "unit": "%"}, {"measurement": "increase in breast muscle weight (bone and skin attached)", "setting": "[2]; low dose (3 PPM), P=0.0227", "result": 4.00, "unit": "%"}]}
